The source made the active and inactive calls.
What was measured:
[1] = target: Eukaryotic translation initiation factor 4E (Mus musculus, UniProt P63073); assay: blockers of eIF4G binding by eIF4E – biochemical, TR-FRET, dose response (AID 855); format: functional;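 further: potency for disrupting eIF4E binding to eIF4GI seen as loss of FRET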
[2] = target: Peroxisome proliferator-activated receptor gamma/Nuclear receptor coactivator 2 (Homo sapiens, UniProt P37231); format: functional;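 further: agonist potency for raising coactivator recruitment to the receptor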
Chain of Peroxisome proliferator-activated receptor gamma/Nuclear receptor coactivator 2 (P37231 whole entry): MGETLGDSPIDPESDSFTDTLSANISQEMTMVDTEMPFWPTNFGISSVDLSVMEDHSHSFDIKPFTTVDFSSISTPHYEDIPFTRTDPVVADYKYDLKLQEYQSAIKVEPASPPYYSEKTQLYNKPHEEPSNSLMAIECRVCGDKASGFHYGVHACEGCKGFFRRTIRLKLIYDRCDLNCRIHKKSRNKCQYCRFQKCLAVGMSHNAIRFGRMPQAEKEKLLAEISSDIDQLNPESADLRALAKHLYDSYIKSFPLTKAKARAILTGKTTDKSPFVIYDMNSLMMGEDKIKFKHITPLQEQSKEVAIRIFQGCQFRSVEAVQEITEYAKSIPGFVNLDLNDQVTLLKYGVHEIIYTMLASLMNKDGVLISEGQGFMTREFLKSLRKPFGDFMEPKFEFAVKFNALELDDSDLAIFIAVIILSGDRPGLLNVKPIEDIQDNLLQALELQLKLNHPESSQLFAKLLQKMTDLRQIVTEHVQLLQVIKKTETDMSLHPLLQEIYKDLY
Chain of Peroxisome proliferator-activated receptor gamma/Nuclear receptor coactivator 2 (Q15596 whole entry, further chain): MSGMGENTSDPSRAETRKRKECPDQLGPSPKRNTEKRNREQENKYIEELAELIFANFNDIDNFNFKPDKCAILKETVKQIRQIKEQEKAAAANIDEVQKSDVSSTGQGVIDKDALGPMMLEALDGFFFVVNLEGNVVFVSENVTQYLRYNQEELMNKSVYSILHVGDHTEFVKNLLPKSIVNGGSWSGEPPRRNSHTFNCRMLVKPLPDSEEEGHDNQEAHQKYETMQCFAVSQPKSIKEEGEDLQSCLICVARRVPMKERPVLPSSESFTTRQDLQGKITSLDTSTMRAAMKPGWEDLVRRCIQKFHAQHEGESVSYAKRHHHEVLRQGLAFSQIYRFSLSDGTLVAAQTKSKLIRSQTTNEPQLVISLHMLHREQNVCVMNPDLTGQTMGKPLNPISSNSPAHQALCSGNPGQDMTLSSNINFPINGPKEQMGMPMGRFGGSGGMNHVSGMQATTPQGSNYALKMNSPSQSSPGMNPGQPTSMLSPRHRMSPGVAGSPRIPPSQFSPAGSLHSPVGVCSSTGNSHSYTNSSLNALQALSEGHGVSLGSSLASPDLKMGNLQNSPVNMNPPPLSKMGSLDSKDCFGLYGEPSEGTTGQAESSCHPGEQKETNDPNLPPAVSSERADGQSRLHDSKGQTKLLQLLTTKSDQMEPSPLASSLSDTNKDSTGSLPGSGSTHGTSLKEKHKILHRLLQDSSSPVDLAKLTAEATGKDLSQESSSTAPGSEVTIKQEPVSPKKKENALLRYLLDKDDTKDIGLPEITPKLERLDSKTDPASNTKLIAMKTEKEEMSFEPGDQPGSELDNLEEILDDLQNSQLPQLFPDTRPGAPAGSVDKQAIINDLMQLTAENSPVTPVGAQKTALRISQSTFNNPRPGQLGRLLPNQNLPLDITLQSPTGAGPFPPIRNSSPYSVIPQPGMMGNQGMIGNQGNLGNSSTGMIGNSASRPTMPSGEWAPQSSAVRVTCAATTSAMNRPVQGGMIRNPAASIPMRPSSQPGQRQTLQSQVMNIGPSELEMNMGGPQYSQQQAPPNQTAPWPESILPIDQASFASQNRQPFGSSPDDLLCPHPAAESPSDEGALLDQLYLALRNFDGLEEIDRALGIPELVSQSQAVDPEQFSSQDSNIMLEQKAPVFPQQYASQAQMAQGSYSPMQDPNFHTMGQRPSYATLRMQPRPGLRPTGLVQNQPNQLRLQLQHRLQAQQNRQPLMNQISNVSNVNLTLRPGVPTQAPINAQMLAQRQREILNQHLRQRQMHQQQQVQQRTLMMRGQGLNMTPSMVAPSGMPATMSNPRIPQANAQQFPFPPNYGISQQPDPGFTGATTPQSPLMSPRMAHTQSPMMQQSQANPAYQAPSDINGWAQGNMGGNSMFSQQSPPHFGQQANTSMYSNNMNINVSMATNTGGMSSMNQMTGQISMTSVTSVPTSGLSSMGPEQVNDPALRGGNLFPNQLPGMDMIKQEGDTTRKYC

[3] = target: Peroxisome proliferator-activated receptor gamma/Nuclear receptor coactivator 1 (Homo sapiens, UniProt P37231); format: functional;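 further: agonist potency as compounds enhance coactivator SRC-1 recruitment to PPARgamma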
[4] = target: T1, Calpain-2 catalytic subunit (Sus scrofa, UniProt P43367); assay: m-calpain protease blockers, concentration series – biochemical, fluorogenic peptide substrate, dose response (AID 1420); format: functional
T1 sequence (P43367 whole entry): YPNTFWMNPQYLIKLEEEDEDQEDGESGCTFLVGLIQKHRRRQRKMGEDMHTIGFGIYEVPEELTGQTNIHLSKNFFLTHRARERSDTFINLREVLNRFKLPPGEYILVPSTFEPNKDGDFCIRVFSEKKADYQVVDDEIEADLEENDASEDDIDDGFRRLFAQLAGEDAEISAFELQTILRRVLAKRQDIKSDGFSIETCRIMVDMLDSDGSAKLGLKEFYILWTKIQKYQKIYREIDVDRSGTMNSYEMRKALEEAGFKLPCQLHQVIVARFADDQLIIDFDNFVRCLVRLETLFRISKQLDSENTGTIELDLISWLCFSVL

[5] = target: Peroxisome proliferator-activated receptor gamma/Nuclear receptor coactivator 3 (Homo sapiens, UniProt P37231); format: functional;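 further: agonist potency for raising coactivator recruitment to the receptor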
Chain of Peroxisome proliferator-activated receptor gamma/Nuclear receptor coactivator 3 (P37231 whole entry): as the sequence (P37231 whole entry) above
Chain of Peroxisome proliferator-activated receptor gamma/Nuclear receptor coactivator 3 (Q9Y6Q9 whole entry, further chain): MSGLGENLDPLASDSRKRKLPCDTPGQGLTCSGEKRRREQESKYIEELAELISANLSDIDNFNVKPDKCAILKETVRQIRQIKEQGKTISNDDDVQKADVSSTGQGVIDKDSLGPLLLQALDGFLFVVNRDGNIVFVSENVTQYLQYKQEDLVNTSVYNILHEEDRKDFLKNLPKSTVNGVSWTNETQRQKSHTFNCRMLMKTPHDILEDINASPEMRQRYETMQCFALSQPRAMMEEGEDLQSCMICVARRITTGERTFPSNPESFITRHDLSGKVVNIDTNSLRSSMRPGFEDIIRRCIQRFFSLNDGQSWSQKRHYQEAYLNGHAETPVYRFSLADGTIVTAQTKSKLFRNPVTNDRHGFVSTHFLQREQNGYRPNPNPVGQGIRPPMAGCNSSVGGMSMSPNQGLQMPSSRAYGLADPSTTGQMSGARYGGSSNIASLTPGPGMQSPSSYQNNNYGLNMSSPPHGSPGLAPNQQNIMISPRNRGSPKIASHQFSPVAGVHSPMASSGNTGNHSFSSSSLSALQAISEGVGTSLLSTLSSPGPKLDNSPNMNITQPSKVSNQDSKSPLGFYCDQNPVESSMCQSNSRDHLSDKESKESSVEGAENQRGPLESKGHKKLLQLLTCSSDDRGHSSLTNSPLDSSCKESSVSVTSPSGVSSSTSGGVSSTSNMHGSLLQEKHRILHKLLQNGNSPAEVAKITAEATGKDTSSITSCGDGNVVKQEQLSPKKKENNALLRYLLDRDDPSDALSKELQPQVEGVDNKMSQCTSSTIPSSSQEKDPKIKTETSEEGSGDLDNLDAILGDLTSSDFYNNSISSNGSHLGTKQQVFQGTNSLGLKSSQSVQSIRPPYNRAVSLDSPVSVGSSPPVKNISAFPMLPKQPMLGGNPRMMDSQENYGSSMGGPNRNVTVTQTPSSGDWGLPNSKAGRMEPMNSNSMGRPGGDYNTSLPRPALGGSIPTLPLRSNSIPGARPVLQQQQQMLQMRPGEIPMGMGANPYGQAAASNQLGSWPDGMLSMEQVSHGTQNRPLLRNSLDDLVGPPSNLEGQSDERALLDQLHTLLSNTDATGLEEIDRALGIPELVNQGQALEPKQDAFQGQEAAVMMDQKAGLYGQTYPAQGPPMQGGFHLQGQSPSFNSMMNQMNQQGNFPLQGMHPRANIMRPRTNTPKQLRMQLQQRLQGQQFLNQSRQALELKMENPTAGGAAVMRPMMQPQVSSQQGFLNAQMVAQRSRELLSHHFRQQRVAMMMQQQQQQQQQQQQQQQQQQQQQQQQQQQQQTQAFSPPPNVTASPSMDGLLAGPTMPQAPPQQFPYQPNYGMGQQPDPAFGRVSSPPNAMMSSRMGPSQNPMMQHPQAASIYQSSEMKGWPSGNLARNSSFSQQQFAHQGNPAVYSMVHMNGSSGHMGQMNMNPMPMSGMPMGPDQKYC

Leucine aminopeptidase = target: T2, Leucine aminopeptidase (Plasmodium falciparum 3D7, UniProt Q8IL11); assay: P. falciparum M17LAP inhibitors, primary screen, biochemical, fluorogenic H-Leu-NHMec substrate, 1536-well (AID 1619); format: functional
T2 sequence (Q8IL11 whole entry): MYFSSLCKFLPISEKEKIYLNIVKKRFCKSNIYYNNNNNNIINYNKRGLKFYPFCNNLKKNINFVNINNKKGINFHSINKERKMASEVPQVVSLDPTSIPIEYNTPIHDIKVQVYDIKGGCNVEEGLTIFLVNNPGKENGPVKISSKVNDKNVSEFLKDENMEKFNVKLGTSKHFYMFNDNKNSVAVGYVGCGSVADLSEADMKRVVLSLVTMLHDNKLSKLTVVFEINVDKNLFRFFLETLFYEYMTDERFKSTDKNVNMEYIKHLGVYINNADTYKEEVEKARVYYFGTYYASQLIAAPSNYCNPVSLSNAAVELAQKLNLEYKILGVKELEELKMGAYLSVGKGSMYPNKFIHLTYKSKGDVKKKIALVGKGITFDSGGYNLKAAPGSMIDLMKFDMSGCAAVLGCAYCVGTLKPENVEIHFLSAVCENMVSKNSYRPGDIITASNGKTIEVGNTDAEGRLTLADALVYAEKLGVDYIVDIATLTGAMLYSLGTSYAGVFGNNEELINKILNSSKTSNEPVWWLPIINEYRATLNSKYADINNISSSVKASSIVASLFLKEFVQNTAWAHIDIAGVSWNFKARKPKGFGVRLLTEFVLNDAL

[6] = target: Tyrosine-protein phosphatase non-receptor type 7 (Homo sapiens, UniProt P35236); assay: Dose Response confirmation of compounds that inhibit HePTP. [Related pubchem assays (depositor defined):AID1059, AID1661, AID2085]; format: functional
Chain of Tyrosine-protein phosphatase non-receptor type 7 (P35236 whole entry): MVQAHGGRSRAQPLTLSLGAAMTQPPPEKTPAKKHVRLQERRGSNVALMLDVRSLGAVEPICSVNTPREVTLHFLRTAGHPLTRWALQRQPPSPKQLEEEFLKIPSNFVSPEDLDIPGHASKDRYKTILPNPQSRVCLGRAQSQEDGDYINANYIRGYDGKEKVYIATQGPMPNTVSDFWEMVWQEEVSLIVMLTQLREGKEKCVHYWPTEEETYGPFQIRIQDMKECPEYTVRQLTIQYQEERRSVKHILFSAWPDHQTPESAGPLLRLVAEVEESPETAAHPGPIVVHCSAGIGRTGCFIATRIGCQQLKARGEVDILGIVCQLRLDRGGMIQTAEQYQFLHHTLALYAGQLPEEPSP

[7] = target: Dual specificity protein phosphatase 3 (Homo sapiens, UniProt P51452); assay: Dose Response Confirmation of compounds that inhibit VHR1 in Fluorescent Assay. [Related pubchem assays (depositor defined):AID1661, AID1878]; format: functional
Chain of Dual specificity protein phosphatase 3 (P51452 whole entry): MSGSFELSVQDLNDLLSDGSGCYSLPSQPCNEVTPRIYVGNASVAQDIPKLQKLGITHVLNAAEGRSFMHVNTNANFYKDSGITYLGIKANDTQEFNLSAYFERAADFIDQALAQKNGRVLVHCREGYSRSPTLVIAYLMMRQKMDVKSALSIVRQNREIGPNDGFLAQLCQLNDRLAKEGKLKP

Aminopeptidase N = target: T3, Aminopeptidase N (Plasmodium falciparum FcB1/Columbia, UniProt O96935); assay: malaria alanyl aminopeptidase activity blockers – biochemical, fluorogenic H-Leu-NHMec substrate, 1536-well (AID 1445); parameters: species or system Plasmodium falciparum 3D7, 3D7
T3 sequence (O96935 whole entry): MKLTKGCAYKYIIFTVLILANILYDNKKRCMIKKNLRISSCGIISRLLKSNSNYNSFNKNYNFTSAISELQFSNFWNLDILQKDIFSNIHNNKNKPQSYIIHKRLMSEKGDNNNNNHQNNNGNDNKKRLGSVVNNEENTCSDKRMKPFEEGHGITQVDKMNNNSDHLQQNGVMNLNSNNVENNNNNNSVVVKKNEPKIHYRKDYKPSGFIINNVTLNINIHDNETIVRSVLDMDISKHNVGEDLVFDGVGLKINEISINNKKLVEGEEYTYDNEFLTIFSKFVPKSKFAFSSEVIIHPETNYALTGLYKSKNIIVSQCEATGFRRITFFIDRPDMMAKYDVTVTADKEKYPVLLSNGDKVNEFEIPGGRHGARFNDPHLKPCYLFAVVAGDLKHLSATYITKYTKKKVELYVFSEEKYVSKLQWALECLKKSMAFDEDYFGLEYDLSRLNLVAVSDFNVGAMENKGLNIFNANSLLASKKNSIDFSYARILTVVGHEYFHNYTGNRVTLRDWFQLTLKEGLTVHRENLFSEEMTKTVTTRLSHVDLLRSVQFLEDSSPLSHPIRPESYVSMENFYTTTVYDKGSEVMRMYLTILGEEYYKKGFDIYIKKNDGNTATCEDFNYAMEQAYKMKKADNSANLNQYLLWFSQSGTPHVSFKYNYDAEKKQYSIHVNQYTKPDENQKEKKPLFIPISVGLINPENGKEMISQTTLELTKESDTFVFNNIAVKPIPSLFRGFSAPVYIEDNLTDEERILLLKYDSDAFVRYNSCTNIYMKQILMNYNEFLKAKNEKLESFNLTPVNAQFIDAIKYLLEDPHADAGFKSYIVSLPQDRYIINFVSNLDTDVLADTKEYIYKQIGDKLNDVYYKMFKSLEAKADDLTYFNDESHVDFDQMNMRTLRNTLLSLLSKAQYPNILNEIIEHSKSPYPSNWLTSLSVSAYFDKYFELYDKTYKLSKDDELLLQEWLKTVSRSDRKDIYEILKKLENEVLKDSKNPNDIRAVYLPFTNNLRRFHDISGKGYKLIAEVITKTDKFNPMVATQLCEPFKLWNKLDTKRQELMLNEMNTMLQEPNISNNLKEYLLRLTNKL

[8] = microbe, parasite or virus in culture; format: functional; conditions: Mycobacterium tuberculosis

Chain of Eukaryotic translation initiation factor 4E (P63073 whole entry): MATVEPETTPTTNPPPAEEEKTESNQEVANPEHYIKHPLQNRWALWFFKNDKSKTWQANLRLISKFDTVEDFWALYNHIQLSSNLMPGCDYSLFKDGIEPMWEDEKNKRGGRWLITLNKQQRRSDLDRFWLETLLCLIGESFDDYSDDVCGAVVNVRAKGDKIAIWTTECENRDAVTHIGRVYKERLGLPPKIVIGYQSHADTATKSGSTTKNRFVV

Row | Structure (SMILES) | IC50 [1] | EC50 [2] | EC50 [3] | IC50 [4] | EC50 [5] | IC50 (Leucine aminopeptidase) | IC50 [6] | IC50 [7] | IC50 (Aminopeptidase N) | CC50 [8]
1 | NS(=O)(=O)c1ccc(NC(=S)NCc2ccc(Cl)cc2)cc1 | > 64 µM (inactive) | > 79.4 µM (not active) | > 79.4 µM (not active) | 9.36 µM (not active) | > 79.4 µM (not active) |  |  |  |  | 
2 | Cc1csc(NC(=O)CCCC(=O)O)c1-c1nc2ccccc2s1 |  |  |  |  |  | 35.4 µM (active) | 3.28 µM (active) | 2.67 µM (active) | 11.2 µM (active) | > 40 µM (active)

Source: ChEMBL document CHEMBL1201862, “PubChem BioAssay data set” (2004)
